Measured values published in the NIST ThermoML archive (doi:10.1016/j.jct.2015.03.023).
“And” between values parts separate entries of the source, which are not always exact repeats. Equal values may be shown once.

Tests used:
[1] = Liquid; for speed of sound / mass density: 101.33 kPa; for speed of sound: Sing-around technique in a fixed-path interferometer; for mass density: Vibrating tube method; for vapor or sublimation pressure: Ebulliometric method (Recirculating still)
[2] = refractive index (Na D-line) (dimensionless); conditions: 101.33 kPa, Liquid, Standard Abbe refractometry
[3] = refractive index (Na D-line) (dimensionless); xn = mol fraction of the nth substance listed; conditions: 101.22 kPa, Liquid, Standard Abbe refractometry

CCCCn1cc[n+](C)c1.[I-] [1-butyl-3-methylimidazolium iodide]
Conditions | mass density, 293.15 K [kg/m3] | mass density, 298.15 K [kg/m3] | mass density, 308.15 K [kg/m3] | refractive index, 293.15 K | refractive index, 298.15 K | refractive index, 308.15 K | speed of sound, 293.15 K [m/s] | speed of sound, 298.15 K [m/s] | speed of sound, 308.15 K [m/s]
[1] | 1483.5 | 1479.6 | 1471.7 | – | – | – | 1508.1 | 1497.5 | 1473.3
[2] | – | – | – | 1.5825 | 1.581 | 1.5781 | – | – | –

CCCCn1cc[n+](C)c1.[I-] [1-butyl-3-methylimidazolium iodide] + CCCCO
refractive index, [3]
Conditions | x1 = 0.108 | x1 = 0.171 | x1 = 0.311 | x1 = 0.381 | x1 = 0.51 | x1 = 0.574 | x1 = 0.623 | x1 = 0.802 | x1 = 0.85 | x1 = 1
293.15 K | – | – | 1.4864 | 1.5007 | 1.5237 | 1.5339 | 1.541 | 1.5634 | 1.5686 | 1.5825
298.15 K | 1.4332 | 1.4508 | 1.4848 | 1.4991 | 1.5221 | 1.5322 | 1.5393 | 1.5618 | 1.567 | 1.581
308.15 K | 1.4294 | 1.4472 | 1.4815 | 1.4958 | 1.5189 | 1.5289 | 1.5361 | 1.5587 | 1.5639 | 1.5781

CCCCO [butan-1-ol]
Conditions | mass density, [1] [kg/m3] | refractive index, [2] | speed of sound, [1] [m/s] | vapor or sublimation pressure, [1] [kPa]
293.15 K | 809.8 | 1.3992 and 1.3993 | 1256.3 | –
298.15 K | 805.9 | 1.3973 | 1239.5 | –
308.15 K | 798.2 | 1.3932 | 1205.9 | –
353.15 K | – | – | – | 21.19
363.15 K | – | – | – | 33.8
373.15 K | – | – | – | 51.73

CCCCO [butan-1-ol] + CCCCn1cc[n+](C)c1.[I-]
[3], x2 = 0
Conditions | refractive index
293.15 K | 1.3992
298.15 K | 1.3973
308.15 K | 1.3932
